Consider one compound from patent publication US6335030B1, “Transdermally administered dextromethorphan as antitussive agent” (Pharmacia & Upjohn AB, priority 1996, dated 2002).

Molecules are shown by their SMILES.

The conditions of data set [1]: cited from earlier work.
For data set [2] the following is noted: in vivo; cited from earlier work.
The conditions of data set [3]: in vivo; cited from earlier work. This is another data set of the same source.
A short description of data set [4]: In vitro skin permeation in Franz diffusion cells. The format is in vitro ADME, pig. An excerpt: Quantitative determination of dextromethorphan in the receptor solution samples from the skin permeation studies in Example 3 and from the membrane permeation studies in Example 4 was done by the HPLC method described under Apparatus.
In vitro permeation of dextromethorphan from the solutions 1, 2, 3, 4, 5, 6, 7 and 8 through dermatomed pig skin was investigated in Franz diffusion Cells.
Skin pieces with a thickness of approximately 765 μm were dermatomed from full thickness pig skin and mounted in glass diffusion cells with an available diffusion area of 1.8 cm^2. Pig skin is a fully accepted model for human skin. The solutions were applied separately on the skin surfaces and the dermal sides were all exposed to 12.1 ml receptor solution consisting of a 0.05M phosphate buffer solution of pH 7.4 equilibrated to 37±1° C.
Permeation of dextromethorphan was followed by removing samples periodically and measuring the concentration by the HPLC method according to Example 2. An increase in the permeated amount of dextromethorphan is seen in the following order: Water, isopropyl myristate, propylene glycol, propylene glycol containing 5% azone, water containing 1% hydroxpropyl-b-cyclodextrine, water containing 1% b-cyclodextrine, ethanol and ethyl acetate used as solvents. The maximal observed flux of dextromethorphan is 21 μg/cm^2/h and the range is from approximately 0.5 to 21 μg/cm^2/h.

The conditions of data set [5]: peroral, dogs; cited from earlier work.

As a reminder, the half-life is the time needed for the level to fall by half in the phase considered. For `COc1ccc2c(c1)[C@]13CCCC[C@@H]1[C@H](C2)N(C)CC3` [dextromethorphan, (+)-3-methoxy-17-methyl-9a,13a,14a-morphinan], in data set [1] (40 mg perorally, tussometri), the “effect on coughing frequency and intensity compared to placebo” value is “significant effect on reducing coughing frequency as well as intensity”. Besides, the “antitussive effect upon inhalation” value in data set [1] (inhalation of 1-30 mg) is recorded as “has not shown any antitussive effect”. For the same compound, the half-life in data set [2] is 4 to 6 h. In data set [3], the safety result was “safe drug”; the “side-effects compared with codeine and noscapine” value was “fewer side-effects”. Further, in data set [4] (dermatomed pig skin, solutions 1-8, receptor phosphate buffer pH 7.4, 37°C), the “maximal observed flux through skin” value is given as 21 μg/cm^2/h. In data set [4] (ethanol, ethyl acetate or addition of cyclodextrines as solvent), the “change of flux depending on solvent” value was “remarkable increase in the fluxes”. Further, the absolute bioavailability in data set [5] was 3.8%.
